In ChEMBL document CHEMBL6153037, “Developing dual-responsive quinolinium prodrugs of 8-hydroxyquinoline by harnessing the dual chelating sites” (Eur J Med Chem, 2025):
In brackets after ≈: the same amount, converted by molar mass. Activity calls are given as the source filed them. No cut-off for these calls is given here.

Legend:
MDA-MB-231 [1] = test: Cytotoxicity against human MDA-MB-231 cells incubated for 24 to 48 hrs by MTT assay; format: functional, cell-based; settings: time 24-48 hrs
[2] = Solubility of compound in PBS buffer at pH 7.4; format: physicochemical
[3] = Cytotoxicity against human MCF-10A cells assessed as inhibition of cell viability incubated for 48 hrs by MTT assay; format: toxicity, cell-based
MDA-MB-231 [4] = test: Cytotoxicity against human MDA-MB-231 cells assessed as inhibition of cell viability incubated for 48 hrs by MTT assay; format: functional, cell-based; settings: MDA-MB-231, 48 h
MDA-MB-231 [5] = test: Effect on phlorizin-induced cytotoxicity against human MDA-MB-231 cells incubated for 12 hrs by MTT assay; format: functional, cell-based
MDA-MB-231 [6] = test: Antitumor activity against human MDA-MB-231 cells assessed as sphere-forming efficiency incubated for 6 hrs followed by medium replacement without compound measured after 6 days by microscopic analysis (reference value: 1.07 %); format: functional
MDA-MB-231 [7] = test: Induction of apoptosis in human MDA-MB-231 cells assessed as necrotic cells incubated for 24 hrs by Annexin V-FITC/PI staining based flow cytometry (reference value: 0.065 %); format: functional
MDA-MB-231 [8] = test: Induction of apoptosis in human MDA-MB-231 cells assessed as viable cells incubated for 24 hrs by Annexin V-FITC/PI staining based flow cytometry (reference value: 99.5 %); format: functional
[9] = Selectivity index, ratio of inhibition of DNA synthesis in human MCF-10A cells to inhibition of DNA synthesis in human MDA-MB-231 cells; format: toxicity, cell-based; settings: MCF-10A cells and MDA-MB-231 cells
MCF-10A [10] = test: Induction of apoptosis in human MCF-10A cells assessed as necrotic cells incubated for 24 hrs by Annexin V-FITC/PI staining based flow cytometry (reference value: 0.17 %); format: toxicity, cell-based
MDA-MB-231 [11] = test: Induction of apoptosis in human MDA-MB-231 cells assessed as late apoptotic cells incubated for 24 hrs by Annexin V-FITC/PI staining based flow cytometry (reference value: 0.17 %); format: functional
MCF-10A [12] = test: Induction of apoptosis in human MCF-10A cells assessed as early apoptotic cells incubated for 24 hrs by Annexin V-FITC/PI staining based flow cytometry (reference value: 1.66 %); format: toxicity, cell-based
[13] = Solubility of compound in double distilled H2O; format: physicochemical; settings: double distilled water
[14] = Toxicity in BALB/c nude mouse xenografted with human MDA-MB-231 cells assessed as body weight change at 20 mg/kg, iv administered every two days for 21 days; format: organism-based; settings: in vivo, 504 h, time 21 day
MDA-MB-231 [15] = test: Induction of apoptosis in human MDA-MB-231 cells assessed as early apoptotic cells incubated for 24 hrs by Annexin V-FITC/PI staining based flow cytometry (reference value: 0.22 %); format: functional
[16] = Lipophilicity, logD of compound at pH 7.4; format: physicochemical; settings: buffer
[17] = Induction of apoptosis in human MCF-10A cells assessed as viable cells incubated for 24 hrs by Annexin V-FITC/PI staining based flow cytometry (reference value: 96.0 %); format: toxicity, cell-based; settings: read-out: Activity
MCF-10A [18] = test: Induction of apoptosis in human MCF-10A cells assessed as late apoptotic cells incubated for 24 hrs by Annexin V-FITC/PI staining based flow cytometry (reference value: 2.16 %); format: toxicity, cell-based
[19] = Lipophilicity, logP of compound; format: physicochemical; settings: octanol/water
MCF-10A [20] = test: Cytotoxicity against human MCF-10A cells assessed as inhibition of cell viability at 150 uM incubated for 48 hrs by MTT assay; format: toxicity, cell-based
MCF-10A [21] = test: Inhibition of mitochondrial membrane potential in human MCF-10A cells incubated for 24 hrs by JC-1 dye based analysis; format: toxicity, cell-based
MDA-MB-231 [22] = test: Antitumor activity against human MDA-MB-231 cells xenografted in BALB/c nude mouse assessed as tumor growth inhibition at 20 mg/kg, iv administered every two days for 21 days; format: functional, organism-based; settings: time 21.0 day
MDA-MB-231 [23] = test: Induction of DNA damage in human MDA-MB-231 cells assessed as increase in gamma-H2AX level incubated for 24 hrs by immunofluorescence based analysis; format: functional, cell-based
MDA-MB-231 [24] = test: Inhibition of mitochondrial membrane potential in human MDA-MB-231 cells incubated for 24 hrs by JC-1 dye based analysis; format: functional, cell-based
MDA-MB-231 [25] = test: Inhibition of mitochondrial membrane potential in human MDA-MB-231 cells assessed as increase in intracellular calcium ion level incubated for 24 hrs by Fluo-4 AM dye based analysis; format: functional, cell-based
MDA-MB-231 [26] = test: Inhibition of mitochondrial membrane potential in human MDA-MB-231 cells assessed as decrease in ATP level incubated for 24 hrs by luminescence based analysis; format: functional, cell-based
MDA-MB-231 [27] = test: Antitumor activity against human MDA-MB-231 cells xenografted in BALB/c nude mouse assessed as tumor size at 20 mg/kg, iv administered every two days for 21 days (reference value: 1940 mm3); format: functional; settings: time 21 day
MDA-MB-231 [28] = test: Induction of apoptosis in human MDA-MB-231 cells assessed as increase in caspase-3 activity incubated for 24 hrs; format: functional, cell-based
MDA-MB-231 [29] = test: Induction of apoptosis in human MDA-MB-231 cells incubated for 24 hrs by TUNEL assay; format: functional, cell-based
MCF-10A [30] = test: Induction of apoptosis in human MCF-10A cells assessed as increase in caspase-3 activity incubated for 24 hrs; format: toxicity, cell-based
MDA-MB-231 [31] = test: Cytotoxicity against human MDA-MB-231 cells incubated for 48 hrs by MTT assay; format: functional, cell-based; settings: MDA-MB-231, 48 h
MDA-MB-231 [32] = test: Cytotoxicity against human MDA-MB-231 cells incubated for 24 hrs by MTT assay; format: functional, cell-based; settings: MDA-MB-231, 24 h
MDA-MB-231 [33] = test: Antitumor activity against human MDA-MB-231 cells xenografted in BALB/c nude mouse at 20 mg/kg, iv administered every two days for 21 days relative to control; format: functional; settings: MDA-MB-231, 504 h, time 21 day, read-out: TGI
MDA-MB-231 [34] = test: Antitumor activity against human MDA-MB-231 cells assessed as reduction in sphere volume incubated for 6 hrs followed by medium replacement without compound measured after 6 days by microscopic analysis; format: functional, cell-based
MDA-MB-231 [35] = test: Cytotoxicity against human MDA-MB-231 cells assessed as decrease in cell viability at 5 uM incubated for 48 hrs by MTT assay relative to control; format: functional

Row | Compound | solubility [2] [µg/mL] | IC50 (MDA-MB-231 [4]) [µM] | Activity (MDA-MB-231 [6]) [%] | Activity (MDA-MB-231 [7]) [%] | Activity (MDA-MB-231 [8]) [%] | selectivity ratio [9] | Activity (MCF-10A [10]) [%] | Activity (MDA-MB-231 [11]) [%] | Activity (MCF-10A [12]) [%] | solubility [13] [µg/mL] | Activity [14] | Activity (MDA-MB-231 [15]) [%] | viability at 24 h [17] [%] | Activity (MCF-10A [18]) [%] | also measured
1 | OC[C@H]1O[C@@H](Oc2ccc(COc3cccc4cccnc34)cc2)[C@H](O)[C@@H](O)[C@@H]1O | 15.6 (≈ 37.8 µM) | 1.2 | 0.21 | 0.11 | 24.5 | 2.3 | 0.88 | 23 | 9.17 | 17.3 (≈ 41.9 µM) | Non-toxic | 52.3 | 76.6 | 13.3 | Activity (MDA-MB-231 [1]): Active; IC50 at 48 h [3]: 4.13 µM; Activity (MDA-MB-231 [5]): inactive; logD [16]: 4.14; logP [19]: 3.81
2 | OC[C@H]1O[C@@H](Oc2ccc(C[n+]3cccc4cccc(O)c43)cc2)[C@H](O)[C@@H](O)[C@@H]1O.[Cl-] | 34.2 | 26.2 | 0.26 | 0.043 | 53.4 | 5.7 | 0.4 | 10.5 | 5.79 | 35.5 | Non-toxic | 36.1 | 87.4 | 6.44 | Activity (MCF-10A [20]): Non-toxic; inhibition (INH) (MCF-10A [21]): Non-toxic; inhibition (MDA-MB-231 [22]): Active; Activity (MDA-MB-231 [23]): Active; inhibition (MDA-MB-231 [24]): Active; inhibition (MDA-MB-231 [25]): Active; inhibition (MDA-MB-231 [26]): Active; Activity (MDA-MB-231 [27]): 970 mm3; Activity (MDA-MB-231 [28]): Dose-dependent-effect; Activity (MDA-MB-231 [29]): Active; Activity (MCF-10A [30]): Non-toxic; IC50 (MDA-MB-231 [31]): 17.9 µM; IC50 (MDA-MB-231 [32]): 31 µM; logD ([16]; read-out: logD): 1.72; inhibition in vivo at 20 mg/kg (MDA-MB-231 [33]): 49.6%; Activity (MDA-MB-231 [34]): Active; logP ([19]; read-out: logP): 2.93
3 | Br.[N-]=[N+]=Nc1ccc(C[n+]2cccc3cccc(O)c32)cc1 | – | – | – | – | – | – | – | – | – | – | – | – | – | – | Activity (MDA-MB-231 [35]): <25%
